Reference: US11000568B2, “Means and methods for treating copper-related diseases” (HELMHOLTZ ZENTRUM MÜNCHEN—DEUTSCHES FORSCHUNGSZENTRUM FÜR …, priority 2015, dated 2021)
“Also recorded” adds a separate entry of the source. Counter-ions that a name gives are not always drawn.

Columns and labels:
LPP−/− mitochondria = assay: Chelator treatment of freshly isolated copper burdened LPP−/− mitochondria (copper extraction); parameters: species or system rat; settings: 30 min incubation
LEC rats = settings: 100 mg/kg bw/d via drinking water, long-term; cited from earlier work
LPP−/− livers = assay: Two hour LPP−/− liver perfusion; parameters: species or system rat; settings: MB 0.7 μM, TTM 0.8 μM, D-PA 2.2 μM, TETA 1.8 μM
Description: LPP−/− livers (animal age 79-83 days) were perfused in a single pass manner with Krebs-Ringer bicarbonate solution containing 5 mM glucose (Beuers et al., J Biol Chem 278, 17810-17818 (2003)). The medium was gassed with 95% O2/5% CO2 and kept at 37° C. Rat livers were perfused via the portal vein (Beuers et al., log. cit.), the right lateral liver lobe was ligated and its copper content served as pre-perfusion control (Beuers et al., Hepatology 33, 1206-1216 (2001)). After cannulation of the bile duct a 20 min sample of bile was collected before the copper chelators were continuously added to the perfusion medium. Bile and outflow perfusate were collected in 10 min intervals as described elsewhere (Beuers et al., log. cit.). D-PA*HCl (20 mg/108 μmol), TETA*2HCl (20 mg/91 μmol), TTM*2NH4 (10 mg/38 μmol) and MB (40 mg/35 μmol) were each dissolved in 50 ml 0.9% NaCl, and continuously added to the perfusion medium via a perfusion pump (Perfusor, Braun, Melsungen) within 2 hours. The molar ratios of the chelators applied was MB 1:D-PA 3.1:TETA 2.6:TTM 1.1. LDH in the outflow perfusate was measured every ten minutes as described (Beuers et al., log. cit.). Control perfusions were done with Krebs-Ringer bicarbonate solution only.

LPP−/− rats = assay: Short-term in vivo treatment of LPP−/− rats; parameters: species or system rat; settings: MB i.p. 3 or 5 days; D-PA or TETA 4 days
Description: LPP rats were treated with MB either by daily i.p. injections for 3 or 5 consecutive days, or twice daily i.p. injections for 8 consecutive days at a dose of 150 mg/kg bw or 4 days via the drinking water with D-PA at a dose of 100 mg/kg bw/d or TETA at 480 mg/kg bw/d, respectively (Togashi et al., Hepatology 15, 82-87 (1992)). Based on a mean copper content of 250 μg/g w.w. in Atp7b−/− rat livers at the age of treatment start (Zischka et al., log. cit.), a LPP−/− rat liver of 8 g w.w. contains around 31.5 μmol copper. Single MB doses were chosen equimolar to this copper amount. […] Assuming 40 ml water intake per day for a rat weighing 250 g this translates to a dose of 480 mg/kg bw/d. With respect to the mean liver copper content in LPP−/− rats aged 85 days, the molar ratios of the chelators applied was MB 1:D-PA 4.3:TETA 17.4, respectively. For the intravenous MB application (150 mg/kg bw), catheters connected to a PinPort™ (Instech Laboratories, Inc., USA) were inserted in the femoral vein of the rat, fixed with non-absorbable sutures and subcutaneously tunneled and exteriorized through a skin incision made between the shoulders.
Formalin-fixed, paraffin-embedded liver samples were cut into 4 μm-thick sections and either stained with hematoxylin and eosin for standard analyses or with Masson trichrome for analysis of fibrotic tissue. AST activity and bilirubin concentration in animal plasma or serum were measured with a Reflotron system (Roche).
Copper in liver homogenates, cell lysates and mitochondrial preparations were analyzed by ICP-OES (Ciros Vision, SPECTRO Analytical Instruments GmbH) after wet ashing of samples with 65% nitric acid (Zischka et al., log. cit.).
The efficiency of a short-term MB treatment schedule was assessed in LPP−/− rats at the age of liver disease onset (85-90 days). Animals received MB (i.p.) either for 3 or 5 days or the clinically used copper chelators D-PA or TETA, which were orally administered for 4-days.

| Compound | mitochondrial copper (LPP−/− rats) | serum AST levels (LPP−/− rats) | whole liver copper (LPP−/− rats) | also measured |
| --- | --- | --- | --- | --- |
| CC(NC(=O)C(C)NC(=S)C1N=C(C(NC(=O)C(CO)NC(=O)C(C)NC(=S)C2N=C(C(=O)CCCNC(=N)N)NC2=O)C(C)OS(=O)(=O)O)OC1=O)C(=O)O (centres unmarked) [mb-SB2] |  |  |  | copper depletion from LPP−/− mitochondria (LPP−/− mitochondria; 1 mM, mitochondria from three LPP−/− rats, vs buffer treated control): depletes copper at least as effective as another MB peptide mb-OB3b; also recorded: decreased at least as effective as the MB peptide mb-OB3b |
| tetrathiomolybdate*2 NH4 [TTM] |  |  |  | copper associated with LPP−/− mitochondria (LPP−/− mitochondria; 2 mM each): rapidly decreased copper |
| CC(C)(S)[C@@H](N)C(=O)O.Cl [D-PA, D-penicillamine*HCl, reference compound] | No copper reduction | unable to avoid the increase of serum AST levels | No copper reduction | onset of hepatitis (LEC rats): successfully prevent the onset of hepatitis; copper released into bile (LPP−/− livers): did not provoke any detectable release of copper into the bile; also recorded: did not bring copper into bile |
| NCCNCCNCCN [TETA, trientine*2 HCl, reference compound] | No copper reduction | unable to avoid the increase of serum AST levels | No copper reduction | copper released into bile (LPP−/− livers; HCl): did not provoke any detectable release of copper into the bile; also recorded: did not bring copper into bile |
